Measurements published in patent publication US11633415B2, “Compounds and methods useful for treating or preventing cancers” (priority 2017, dated 2023).

system: colorectal carcinoma cell line HT29; assay: Cell viability assay, HT29; format: cell-based; conditions: Homo sapiens, HT-29; HT29, 72 hours from plating (48 hours from compound administration)
Experimental: Cell viability assays were conducted against colorectal carcinoma cell line HT29. Cells were plated in wells and at 24 hours after plating, compounds were added to determine their effect on cell viability at various dosages. After 48 hours from compound administration, the cell viability was determined and the IC50 values were calculated. […] FIG. 4B illustrates the results of another cell viability measurement and IC50 value for Compound 1 assessed by ATP abundance on HT29 at 5 days.

SMILES | IC50
CCC(CC)COC(=O)C(C#N)c1nc2ccccc2nc1N1CCNC(C)(C)C1 (centres unmarked) | 2.13 µM
CN1CCN(c2nc3ccccc3nc2C(C#N)C(=O)OCc2ccccc2)CC1 (centres unmarked) | 56.8 µM
N#CC(C(=O)OCC1CCCCC1)c1nc2ccccc2nc1N1CCNCC1 (centres unmarked) | 3.78 µM
N#C/C(C(=O)OCC1CCCCC1)=C1/Nc2ccc(-c3ccccc3F)cc2N=C1N1CCNCC1 | 1.9 µM
N#C/C(C(=O)OCC1CCCCC1)=C1/Nc2ccc(-c3ccccc3O)cc2N=C1N1CCNCC1 | 0.837 µM
N#C/C(C(=O)OCC1CCCCC1)=C1/Nc2ccc(-c3ccc(O)cc3)cc2N=C1N1CCNCC1 | 0.472 µM
N#C/C(C(=O)OCC1CCCCC1)=C1/Nc2ccc(-c3cccc(F)c3)cc2N=C1N1CCNCC1 | 2.31 µM
N#C/C(C(=O)OCC1CCCCC1)=C1/Nc2ccc(-c3ccc(F)cc3)cc2N=C1N1CCNCC1 | 1.78 µM
N#C/C(C(=O)OCC1CCCCC1)=C1/Nc2cc(N)ccc2N=C1N1CCNCC1 | 3.71 µM
N#C/C(C(=O)OCC1CCCCC1)=C1/Nc2cccc(N)c2N=C1N1CCNCC1 | 5.46 µM
CN1CCN(c2nc3ccccc3nc2C(C#N)C(=O)OC2CCCCC2)CC1 (centres unmarked) [drawing 113] | 10000 µM
CCN1CCN(c2nc3ccccc3nc2C(C#N)C(=O)OC2CCCCC2)CC1 (centres unmarked) [drawing 166] | 17.4 µM

molecular target: GST-tagged full-length human CK1α (Homo sapiens (Human), UniProt P48729); assay: Kinase enzymatic assay, mobility shift on LabChip system (AC50); format: biochemical; conditions: mean AC50; 5 μM ATP; 1 μM Profiler Pro FL-Peptide 16 substrate
Sequence (P48729 whole entry): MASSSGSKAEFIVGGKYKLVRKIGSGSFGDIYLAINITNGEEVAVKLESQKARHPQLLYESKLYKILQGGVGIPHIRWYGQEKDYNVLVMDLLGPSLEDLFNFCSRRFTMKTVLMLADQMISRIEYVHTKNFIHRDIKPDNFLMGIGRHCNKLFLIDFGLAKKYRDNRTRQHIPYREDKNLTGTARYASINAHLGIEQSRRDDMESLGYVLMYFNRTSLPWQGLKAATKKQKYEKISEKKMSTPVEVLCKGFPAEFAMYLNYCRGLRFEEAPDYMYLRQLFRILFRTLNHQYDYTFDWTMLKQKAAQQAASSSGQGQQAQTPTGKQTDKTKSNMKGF
Experimental: (§1) Enzymatic assays were performed using a mobility shift assay on the LabChip system. Purified kinase protein was incubated with ATP, substrate, and assay buffer (20 mM Hepes—pH 7.5; 5 mM MgCl2, and 0.01% Triton X-100). The assay reaction was initiated with 5 μM ATP and with each compound present. Compounds were tested at the KM,ATP for the protein target (GST-tagged full-length human CK1α, available from Carna Biosciences, Japan) or over a range of ATP concentrations between 5 μM and 9 μM. […] AC50 values were determined using phosphorylated and unphosphorylated substrates.

SMILES | AC50
CCC(CC)COC(=O)C(C#N)c1nc2ccccc2nc1N1CCNC(C(C)C)C1 (centres unmarked) | 1.39 µM
CCC(CC)COC(=O)C(C#N)c1nc2ccccc2nc1N1CCNC(Cc2ccccc2)C1 (centres unmarked) | 1.27 µM
N#CC(C(=O)OCC1CCCCCC1)c1nc2ccccc2nc1N1CCNCC1 (centres unmarked) | 0.355 µM
CN1CCN(c2nc3ccccc3nc2C(C#N)C(=O)OCC2CCCCC2)CC1 (centres unmarked) | 0.029 µM
CCC(CC)COC(=O)C(C#N)c1nc2ccccc2nc1N1CCNC(C)(C)C1 (centres unmarked) | 0.159 µM
CC(C)COC(=O)C(C#N)c1nc2ccccc2nc1N1CCC(C(N)=O)CC1 (centres unmarked) | 4.64 µM
N#CC(C(=O)OCc1ccncc1)c1nc2ccccc2nc1N1CCNCC1 (centres unmarked) | 0.468 µM
N#CC(C(=O)OCC1CCCC1)c1nc2ccccc2nc1N1CCNCC1 (centres unmarked) | 0.138 µM
CCC(CC)COC(=O)C(C#N)c1nc2ccccc2nc1N1CCNC(c2ccccc2)C1 (centres unmarked) | 2.22 µM
CCC(CC)COC(=O)C(C#N)c1nc2ccccc2nc1N1CCN[C@@H](C)C1 (some centres unmarked) | 1.22 µM
CCC(CC)COC(=O)C(C#N)c1nc2ccccc2nc1N1CCNC(CC)C1 (centres unmarked) | 0.958 µM
CCC(CC)COC(=O)C(C#N)c1nc2ccccc2nc1N1CCNC(CO)C1 (centres unmarked) | 0.517 µM
N#CC(C(=O)OCC1CCCCC1)c1nccnc1N1CCNCC1 (centres unmarked) | 0.304 µM
CCC(CC)COC(=O)C(C#N)c1nc2ccccc2nc1N1CCNC(C(=O)OC)C1 (centres unmarked) | 3.15 µM
CCC(CC)COC(=O)C(C#N)c1nc2ccccc2nc1NC1CCNCC1 (centres unmarked) | 1.33 µM
CCC(CC)COC(=O)C(C#N)c1nc2ccccc2nc1N1CCNC(=O)C1 (centres unmarked) | 1.74 µM
N#CC(C(=O)NCC1CCCCC1)c1nc2ccccc2nc1N1CCNCC1 (centres unmarked) | 1.76 µM
N#CC(C(=O)OCc1cccnc1)c1nc2ccccc2nc1N1CCNCC1 (centres unmarked) | 0.95 µM
N#CC(C(=O)OCC1CCCCC1)c1nc2ccccc2nc1N1CCNCC1 (centres unmarked) | 0.02 µM
CCC(CC)COC(=O)C(C#N)c1nc2ccccc2nc1N1CCNC(C)C1 (centres unmarked) | 0.434 µM
N#CC(C(=O)OCc1ccc2ccccc2c1)c1nc2ccccc2nc1N1CCNCC1 (centres unmarked) | 3.87 µM
CCC(CC)COC(=O)C(C#N)c1nc2ccccc2nc1N1CCN[C@H](C)C1 (some centres unmarked) | 0.333 µM
N#C/C(C(=O)OCC1CCCCC1)=C1/Nc2c(F)cccc2N=C1N1CCNCC1 | 1.14 µM
N#C/C(C(=O)OCC1CCCCC1)=C1/Nc2ccc(F)cc2N=C1N1CCNCC1 | 0.065 µM
N#C/C(C(=O)OCC1CCCCC1)=C1/Nc2ccc(-c3ccccc3F)cc2N=C1N1CCNCC1 | 0.043 µM
N#C/C(C(=O)OCC1CCCCC1)=C1/Nc2ccc(-c3ccccc3O)cc2N=C1N1CCNCC1 | 0.043 µM

SMILES | AC50
N#C/C(C(=O)NCc1ccccc1)=C1/Nc2ccccc2N=C1N1CCNCC1 | 1.92 µM
N#C/C(C(=O)OCC1CCCCC1)=C1/Nc2cccc(F)c2N=C1N1CCNCC1 | 0.405 µM
N#C/C(C(=O)OCC1CCCCC1)=C1/Nc2ccc([N+](=O)[O-])cc2N=C1N1CCNCC1 | 0.158 µM
N#C/C(C(=O)OCC1CCCCC1)=C1/Nc2ccc(-c3ccccc3)cc2N=C1N1CCNCC1 | 0.27 µM
N#C/C(C(=O)OCC1CCCCC1)=C1\C=C(N2CCNCC2)N=CN1 | 3.78 µM
N#C/C(C(=O)OCC1CCCCC1)=C1/Nc2ccc(-c3ccc(O)cc3)cc2N=C1N1CCNCC1 | 0.013 µM
N#C/C(C(=O)OCC1CCCCC1)=C1/Nc2ccc(-c3cccc(F)c3)cc2N=C1N1CCNCC1 | 0.108 µM
N#C/C(C(=O)OCC1CCCCC1)=C1/Nc2ccccc2C=C1N1CCNCC1 | 1.33 µM
N#C/C(C(=O)OCC1CCCCC1)=C1/Nc2ccc(-c3ccc(F)cc3)cc2N=C1N1CCNCC1 | 0.074 µM
N#C/C(C(=O)OCC1CCCCC1)=C1/NC=NC=C1N1CCNCC1 | 0.467 µM
N#C/C(C(=O)CCC1CCCCC1)=C1/Nc2ccccc2N=C1N1CCNCC1 | 3.15 µM
CN1CCN(c2nc3ccccc3nc2C(C#N)C(=O)OC2CCCCC2)CC1 (centres unmarked) [drawing 113] | 3.5 µM
CC(C)(C)COC(=O)C(C#N)c1nc2ccccc2nc1N1CCNCC1 (centres unmarked) [drawing 115] | 0.151 µM
CN1CCN(c2nc3ccccc3nc2C(C#N)C(=O)OCC(C)(C)C)CC1 (centres unmarked) [drawing 117] | 0.822 µM
N#CC(C(=O)OCc1ccccc1F)c1nc2ccccc2nc1N1CCNCC1 (centres unmarked) [drawing 123] | 1.51 µM
CCC(CC)COC(=O)C(C#N)c1nc2ccccc2nc1N1CCC(CN)CC1 (centres unmarked) [drawing 124] | 2.6 µM
CCC(CC)COC(=O)C(C#N)c1nc2ccccc2nc1N1CCC(N)CC1 (centres unmarked) [drawing 126] | 4.22 µM
N#CC(C(=O)OCc1ccc(F)cc1)c1nc2ccccc2nc1N1CCNCC1 (centres unmarked) [drawing 129] | 2.73 µM
N#CC(C(=O)OCc1ccccc1)c1nc2ccccc2nc1N1CCC(N)CC1 (centres unmarked) [drawing 131] | 1.82 µM
N#CC(C(=O)OCc1cccc(F)c1)c1nc2ccccc2nc1N1CCNCC1 (centres unmarked) [drawing 134] | 0.353 µM
N#CC(C(=O)OCc1cccc(N)c1)c1nc2ccccc2nc1N1CCNCC1 (centres unmarked) [drawing 141] | 3.8 µM
CCC(CC)COC(=O)C(C#N)c1nc2ccccc2nc1N1CCN(C)CC1 (centres unmarked) [drawing 142] | 1.34 µM
CN1CCN(c2nc3ccccc3nc2C(C#N)C(=O)OCc2ccc(F)cc2)CC1 (centres unmarked) [drawing 146] | 2.04 µM
CNC1CCN(c2nc3ccccc3nc2C(C#N)C(=O)OCc2ccccc2)CC1 (centres unmarked) [drawing 147] | 3.65 µM
CCC(CC)COC(=O)C(C#N)c1nc2ccccc2nc1N1CCNCC1 (centres unmarked) [drawing 149] | 1.94 µM

molecular target: CSNK1A1 (Homo sapiens (Human), UniProt P48729); assay: Kinase enzymatic IC50 (Carna Biosciences mobility shift assay); format: biochemical; conditions: Table 1, CSNK1A1 inhibitors; read-out: IC50
Sequence (P48729 whole entry): as above
Experimental: as §1

SMILES | IC50
CN1CCN(c2nc3ccccc3nc2C(C#N)C(=O)OCC(C)(C)C)CC1 (centres unmarked) [2,2 dimethyl propyl 2-cyano-2-(3-(4-(methylpiperazin-1-yl)quinoxalin-2-yl)acetate] | 0.715 µM
CC(C)(C)COC(=O)C(C#N)c1nc2ccccc2nc1N1CCNCC1 (centres unmarked) [2,2 dimethyl propyl 2-cyano-2-(3-(4-(piperazin-1-yl)quinoxalin-2-yl)acetate] | 0.21 µM
CCC(CC)COC(=O)C(C#N)c1nc2ccccc2nc1N1CCC(N)CC1 (centres unmarked) [2-ethylbutyl 2-cyano-2-(3-(4-(amino)piperidin-1-yl)quinoxalin-2-yl)acetate] | 3.32 µM
CCC(CC)COC(=O)C(C#N)c1nc2ccccc2nc1N1CCC(CN)CC1 (centres unmarked) [2-ethylbutyl 2-cyano-2-(3-(4-(aminomethyl)piperidin-1-yl)quinoxalin-2-yl)acetate] | 1.75 µM
CCC(CC)COC(=O)C(C#N)c1nc2ccccc2nc1N1CCN(C)CC1 (centres unmarked) [2-ethylbutyl 2-cyano-2-(3-(4-(methylpiperazin-1-yl)quinoxalin-2-yl)acetate] | 0.399 µM
CCC(CC)COC(=O)C(C#N)c1nc2ccccc2nc1N1CCNCC1 (centres unmarked) [2-ethylbutyl 2-cyano-2-(3-(4-(piperazin-1-yl)quinoxalin-2-yl)acetate] | 0.094 µM
N#CC(C(=O)OCc1ccccc1F)c1nc2ccccc2nc1N1CCNCC1 (centres unmarked) [2-fluorobenzyl 2-cyano-2-(3-(4-(piperazin-1-yl)quinoxalin-2-yl)acetate] | 1.88 µM
N#CC(C(=O)OCc1cccc(N)c1)c1nc2ccccc2nc1N1CCNCC1 (centres unmarked) [3-aminobenzyl 2-cyano-2-(3-(4-(piperazin-1-yl)quinoxalin-2-yl)acetate] | 4.13 µM
N#CC(C(=O)OCc1cccc(F)c1)c1nc2ccccc2nc1N1CCNCC1 (centres unmarked) [3-fluorobenzyl 2-cyano-2-(3-(4-(piperazin-1-yl)quinoxalin-2-yl)acetate] | 0.268 µM
CN1CCN(c2nc3ccccc3nc2C(C#N)C(=O)OCc2ccc(F)cc2)CC1 (centres unmarked) [4-fluorobenzyl 2-cyano-2-(3-(4-(methylpiperazin-1-yl)quinoxalin-2-yl)acetate] | 2.89 µM
N#CC(C(=O)OCc1ccc(F)cc1)c1nc2ccccc2nc1N1CCNCC1 (centres unmarked) [4-fluorobenzyl 2-cyano-2-(3-(4-(piperazin-1-yl)quinoxalin-2-yl)acetate] | 1.29 µM
Nc1ncnc2c1c(COc1cccc(Cl)c1)nn2C1CCOCC1 [PF4800567, 3-(3-chloro-phenoxymethyl)-1-(tetrahydro-pyran-4-yl)-1H-pyrazolo[3,4-d]pyrimidin-4-ylamine, reference compound] | 0.857 µM
N#CC(C(=O)OCc1ccccc1)c1nc2ccccc2nc1N1CCC(N)CC1 (centres unmarked) [benzyl 2-(3-(4-aminopiperidin-1-yl)quinoxalin-2-yl)-2-cyanoacetate] | 1.89 µM
CNC1CCN(c2nc3ccccc3nc2C(C#N)C(=O)OCc2ccccc2)CC1 (centres unmarked) [benzyl 2-cyano-2-(3-(4-(methylamino)piperidin-1-yl)quinoxalin-2-yl)acetate] | 4.39 µM
CCC(CC)COC(=O)C(C#N)c1nc2ccccc2nc1N1CCN(CC)CC1 (centres unmarked) [compound 3, 2-ethylbutyl 2-cyano-2-(3-(4-ethylpiperazin-1-yl)quinoxalin-2-yl)acetate] | 5 µM
CN1CCN(c2nc3ccccc3nc2C(C#N)C(=O)OC2CCCCC2)CC1 (centres unmarked) [compound 4, cyclohexyl 2-cyano-2-(3-(4-methylpiperazin-1-yl)quinoxalin-2-yl)acetate] | 3.18 µM

same assay, conditions: known inhibitors, background text (rounded Table 1 values); read-out: IC50 against CSNK1A1

SMILES | IC50
Nc1ncnc2c1c(COc1cccc(Cl)c1)nn2C1CCOCC1 [PF4800567, 3-(3-chloro-phenoxymethyl)-1-(tetrahydro-pyran-4-yl)-1H-pyrazolo[3,4-d]pyrimidin-4-ylamine, reference compound] | 0.86 µM
